System: Abp1 PPIs
Assay: DHFR-PCA of Abp1 SH3-swapped baits (Fig. 2B-D, S2C, S2F);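 as to Protein-protein interaction distance between Abp1 SH3-swapped baits, to ABP1: Euclidean distance between DHFR-PCA score profiles of the baits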;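 as to Protein-protein interaction distance between Abp1 SH3-swapped baits, to BEM1-2: Euclidean distance between DHFR-PCA score profiles of the baits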;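 as to Protein-protein interaction distance between Abp1 SH3-swapped baits, to BOI1: Euclidean distance between DHFR-PCA score profiles of the baits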;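 as to Protein-protein interaction distance between Abp1 SH3-swapped baits, to BZZ1-1: Euclidean distance between DHFR-PCA score profiles of the baits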
Assay type: cell-based, Saccharomyces cerevisiae
Conditions: for Protein-protein interaction distance between Abp1 SH3-swapped baits, to ABP1: Abp1 bait with swapped SH3, distance to bait with ABP1 SH3; for Protein-protein interaction distance between Abp1 SH3-swapped baits, to ABP1 / Protein-protein interaction distance between Abp1 SH3-swapped baits, to BBC1 / Protein-protein interaction distance between Abp1 SH3-swapped baits, to BEM1-1 / Protein-protein interaction distance between Abp1 SH3-swapped baits, to BEM1-2 / Protein-protein interaction distance between Abp1 SH3-swapped baits, to BOI1 / Protein-protein interaction distance between Abp1 SH3-swapped baits, to BOI2 / Protein-protein interaction distance between Abp1 SH3-swapped baits, to BUD14 / Protein-protein interaction distance between Abp1 SH3-swapped baits, to BZZ1-1 / Protein-protein interaction distance between Abp1 SH3-swapped baits, to BZZ1-2 / Protein-protein interaction distance between Abp1 SH3-swapped baits, to CDC25 / Protein-protein interaction distance between Abp1 SH3-swapped baits, to CTTN / Protein-protein interaction distance between Abp1 SH3-swapped baits, to CYK3 / Protein-protein interaction distance between Abp1 SH3-swapped baits, to DBNL / Protein-protein interaction distance between Abp1 SH3-swapped baits, to FUS1 / Protein-protein interaction distance between Abp1 SH3-swapped baits, to HCLS1 / Protein-protein interaction distance between Abp1 SH3-swapped baits, to HOF1 / Protein-protein interaction distance between Abp1 SH3-swapped baits, to HSE1 / Protein-protein interaction distance between Abp1 SH3-swapped baits, to LSB1 / Protein-protein interaction distance between Abp1 SH3-swapped baits, to LSB3 / Protein-protein interaction distance between Abp1 SH3-swapped baits, to MYO3 / Protein-protein interaction distance between Abp1 SH3-swapped baits, to MYO5 / Protein-protein interaction distance between Abp1 SH3-swapped baits, to NBP2 / Protein-protein interaction distance between Abp1 SH3-swapped baits, to PEX13 / Protein-protein interaction distance between Abp1 SH3-swapped baits, to PIN3 / Protein-protein interaction distance between Abp1 SH3-swapped baits, to RVS167 / Protein-protein interaction distance between Abp1 SH3-swapped baits, to SDC25 / Protein-protein interaction distance between Abp1 SH3-swapped baits, to SHO1 / Protein-protein interaction distance between Abp1 SH3-swapped baits, to SLA1-1 / Protein-protein interaction distance between Abp1 SH3-swapped baits, to SLA1-2 / Protein-protein interaction distance between Abp1 SH3-swapped baits, to SLA1-3 / Protein-protein interaction distance between Abp1 SH3-swapped baits, to YSC84: sheet Fig2C; for Protein-protein interaction distance between Abp1 SH3-swapped baits, to BBC1: distance to Abp1 bait with BBC1 SH3; for Protein-protein interaction distance between Abp1 SH3-swapped baits, to BEM1-1: distance to Abp1 bait with BEM1-1 SH3; for Protein-protein interaction distance between Abp1 SH3-swapped baits, to BEM1-2: distance to Abp1 bait with BEM1-2 SH3; for Protein-protein interaction distance between Abp1 SH3-swapped baits, to BOI1: distance to Abp1 bait with BOI1 SH3; for Protein-protein interaction distance between Abp1 SH3-swapped baits, to BOI2: distance to Abp1 bait with BOI2 SH3; for Protein-protein interaction distance between Abp1 SH3-swapped baits, to BUD14: distance to Abp1 bait with BUD14 SH3; for Protein-protein interaction distance between Abp1 SH3-swapped baits, to BZZ1-1: distance to Abp1 bait with BZZ1-1 SH3; for Protein-protein interaction distance between Abp1 SH3-swapped baits, to BZZ1-2: distance to Abp1 bait with BZZ1-2 SH3; for Protein-protein interaction distance between Abp1 SH3-swapped baits, to CDC25: distance to Abp1 bait with CDC25 SH3; for Protein-protein interaction distance between Abp1 SH3-swapped baits, to CTTN: distance to Abp1 bait with CTTN SH3; for Protein-protein interaction distance between Abp1 SH3-swapped baits, to CYK3: distance to Abp1 bait with CYK3 SH3; for Protein-protein interaction distance between Abp1 SH3-swapped baits, to DBNL: distance to Abp1 bait with DBNL SH3; for Protein-protein interaction distance between Abp1 SH3-swapped baits, to FUS1: distance to Abp1 bait with FUS1 SH3; for Protein-protein interaction distance between Abp1 SH3-swapped baits, to HCLS1: distance to Abp1 bait with HCLS1 SH3; for Protein-protein interaction distance between Abp1 SH3-swapped baits, to HOF1: distance to Abp1 bait with HOF1 SH3; for Protein-protein interaction distance between Abp1 SH3-swapped baits, to HSE1: distance to Abp1 bait with HSE1 SH3; for Protein-protein interaction distance between Abp1 SH3-swapped baits, to LSB1: distance to Abp1 bait with LSB1 SH3; for Protein-protein interaction distance between Abp1 SH3-swapped baits, to LSB3: distance to Abp1 bait with LSB3 SH3; for Protein-protein interaction distance between Abp1 SH3-swapped baits, to MYO3: distance to Abp1 bait with MYO3 SH3; for Protein-protein interaction distance between Abp1 SH3-swapped baits, to MYO5: distance to Abp1 bait with MYO5 SH3; for Protein-protein interaction distance between Abp1 SH3-swapped baits, to NBP2: distance to Abp1 bait with NBP2 SH3; for Protein-protein interaction distance between Abp1 SH3-swapped baits, to PEX13: distance to Abp1 bait with PEX13 SH3; for Protein-protein interaction distance between Abp1 SH3-swapped baits, to PIN3: distance to Abp1 bait with PIN3 SH3; for Protein-protein interaction distance between Abp1 SH3-swapped baits, to RVS167: distance to Abp1 bait with RVS167 SH3; for Protein-protein interaction distance between Abp1 SH3-swapped baits, to SDC25: distance to Abp1 bait with SDC25 SH3; for Protein-protein interaction distance between Abp1 SH3-swapped baits, to SHO1: distance to Abp1 bait with SHO1 SH3; for Protein-protein interaction distance between Abp1 SH3-swapped baits, to SLA1-1: distance to Abp1 bait with SLA1-1 SH3; for Protein-protein interaction distance between Abp1 SH3-swapped baits, to SLA1-2: distance to Abp1 bait with SLA1-2 SH3; for Protein-protein interaction distance between Abp1 SH3-swapped baits, to SLA1-3: distance to Abp1 bait with SLA1-3 SH3; for Protein-protein interaction distance between Abp1 SH3-swapped baits, to YSC84: distance to Abp1 bait with YSC84 SH3; for SH3-dependent PPIs gained by Abp1: DHFR-PCA
From the text: Having determined that multiple PPIs require SH3s, we asked whether the latter establish PPI specificity independently from their host proteins by swapping domains (Fig. 2A). Using the second round of genome editing, we individually replaced Abp1 SH3 with the 27 yeast SH3s and 3 human Abp1 orthologs’ SH3s (CTTN, HCLS1, and DBNL, Fig. 2B). The reintroduction of its own SH3 (Abp1SH3 in Abp1) reconstitutes almost perfectly Abp1’s interaction profile (Kendall’s τ = 0.93, Fig. 2B). […] No homologous SH3 domain fully re-establishes the normal Abp1 PPI profile (Fig. 2B and Supplementary Fig. 2C). However, we observe a significant correlation (cophenetic correlation = 0.20, p value = 0.005, Fig. 2C) between the similarity of PPI profiles (Fig. 2B) and the sequence similarity of the SH3s. […] Nonetheless, a subset of SH3-dependent PPIs is only observed with the endogenous domain. For instance, Hua2 and App1, both well-characterized partners of Abp1[14],[18],[19], are only detected when Abp1 contains its own SH3 (WT or swapped via editing). A given SH3 may therefore not be fully replaceable with other paralogous or orthologous domains. This pattern is confirmed by cellular growth phenotypic analyses (Supplementary Fig. 2D, E). PPIs, SH3 sequence similarity, and growth profiles under stress conditions are correlated (Supplementary Fig. 2D, E). This relationship is particularly clear when analyzing growth on media supplemented with hygromycin.
The stuffing of YSC84 SH3 rendered the strain sterile and was therefore not used for this study as the assays require crosses. For genes containing two SH3s (BZZ1 and BEM1), a combination of this first stuffer with a second one ([…]) coding for a highly similar linker ([…]) was used, which allowed targeting each SH3 position independently. The two N-terminal domains of SLA1, which are separated by six nucleotides, were stuffed by a single stuffer. Cells containing pCAS were selected via the G418 resistance cassette from the plasmid on YPD plates (YPD + NAT 100 μg/ml (DHFR F[1,2] selection) + G418 200 µg/mL (Bioshop Canada)). Colonies were randomly selected and grown in YPD media without G418 to allow plasmid loss. The correct insertion of the stuffer was validated by PCR and Sanger sequencing. The SH3-swapped, -shuffled, and -mutated strains were constructed following a second CRISPR–Cas9 editing step with the same procedures. The stuffer sequences were targeted by specific gRNAs (one gRNA per stuffer) and replaced by PCR amplified specific SH3 (with 40 bp homology arms) or libraries of mutated SH3 domains for Deep Mutational Scanning (DMS) with 78 bp flanking homology regions. Validation of the SH3 domain insertions was done as we previously described except for DMS libraries (see below).
The overall DHFR-PCA pipeline is based on Tarassov et al.[43] and the procedures have also been published as a visualized protocol. The screens were performed with robotically manipulated pin tools (BM5-SC1, S&P Robotics Inc.). First, the preys were cherry-picked from 96-well plates to omnitrays in a 384 format on YPD + HPH solid media. Plates were then combined into the 1536 format on YPD + HPH. The array was constituted of 575 preys previously shown to interact physically with at least one SH3-containing protein as reported in BioGRID V3.4.16 along with 40 negative controls. The prey array comprised a border of control strains of two rows and two columns corresponding to the PPI between LSM8-DHFR F[1,2] and CDC39-DHFR F[3]. This double border was used to remove border effects. Preys are present in duplicate at a randomized position in the 1536 array (except for YAL041W which is present four times per array). Baits were crossed with two prey plates, resulting in four independent bait–prey tests for each PPI. Baits were grown in liquid YPD + NAT and then transferred on solid YPD + NAT omnitrays. They were then replicated on YPD + NAT omnitrays in 1536 array format. […]

[1] = number of PPIs, difference, Abp1 SH3-swapped with the listed SH3, Fig2D,S2F
[2] = number of PPIs, Abp1 SH3-swapped with the listed SH3, Fig2D,S2F
[3] = Fig2B, bait ABP1, label = prey, Replicates 4

Substance	Protein-protein interaction distance between Abp1 SH3-swapped baits, to ABP1	Protein-protein interaction distance between Abp1 SH3-swapped baits, to BBC1	Protein-protein interaction distance between Abp1 SH3-swapped baits, to BEM1-1	Protein-protein interaction distance between Abp1 SH3-swapped baits, to BEM1-2	Protein-protein interaction distance between Abp1 SH3-swapped baits, to BOI1	Protein-protein interaction distance between Abp1 SH3-swapped baits, to BOI2	Protein-protein interaction distance between Abp1 SH3-swapped baits, to BUD14	Protein-protein interaction distance between Abp1 SH3-swapped baits, to BZZ1-1	Protein-protein interaction distance between Abp1 SH3-swapped baits, to BZZ1-2	Protein-protein interaction distance between Abp1 SH3-swapped baits, to CDC25	Protein-protein interaction distance between Abp1 SH3-swapped baits, to CTTN	Protein-protein interaction distance between Abp1 SH3-swapped baits, to CYK3	Protein-protein interaction distance between Abp1 SH3-swapped baits, to DBNL	Protein-protein interaction distance between Abp1 SH3-swapped baits, to FUS1	Protein-protein interaction distance between Abp1 SH3-swapped baits, to HCLS1	Protein-protein interaction distance between Abp1 SH3-swapped baits, to HOF1	Protein-protein interaction distance between Abp1 SH3-swapped baits, to HSE1	Protein-protein interaction distance between Abp1 SH3-swapped baits, to LSB1	Protein-protein interaction distance between Abp1 SH3-swapped baits, to LSB3	Protein-protein interaction distance between Abp1 SH3-swapped baits, to MYO3	further results
CDC25	26.13	24.45	16.86	13.04	21	19.43	15.51	25.36	21.74	0.00	20.74	5.497	24.44	14.2	27.89	10.42	24.19	30.85	30.47	29.41	Protein-protein interaction distance between Abp1 SH3-swapped baits, to MYO5: 28.8; Protein-protein interaction distance between Abp1 SH3-swapped baits, to NBP2: 15.13; Protein-protein interaction distance between Abp1 SH3-swapped baits, to PEX13: 29.16; Protein-protein interaction distance between Abp1 SH3-swapped baits, to PIN3: 28.09; Protein-protein interaction distance between Abp1 SH3-swapped baits, to RVS167: 27.4; Protein-protein interaction distance between Abp1 SH3-swapped baits, to SDC25: 14.8; Protein-protein interaction distance between Abp1 SH3-swapped baits, to SHO1: 24.02; Protein-protein interaction distance between Abp1 SH3-swapped baits, to SLA1-1: 7.329; Protein-protein interaction distance between Abp1 SH3-swapped baits, to SLA1-2: 13.18; Protein-protein interaction distance between Abp1 SH3-swapped baits, to SLA1-3: 30.95; Protein-protein interaction distance between Abp1 SH3-swapped baits, to YSC84: 30.76; SH3-dependent PPIs - SH3-dependent PPIs gained by Abp1 [1]: 3; SH3-dependent PPIs gained by Abp1 [2]: 0
RVS167	9.548	9.304	14.67	33.63	11.58	15.22	18.02	5.914	11.17	27.4	12.4	28.09	5.554	19.5	7.638	32.19	7.315	7.392	7.852	9.049	Protein-protein interaction distance between Abp1 SH3-swapped baits, to MYO5: 7.689; Protein-protein interaction distance between Abp1 SH3-swapped baits, to NBP2: 17.22; Protein-protein interaction distance between Abp1 SH3-swapped baits, to PEX13: 4.587; Protein-protein interaction distance between Abp1 SH3-swapped baits, to PIN3: 5.294; Protein-protein interaction distance between Abp1 SH3-swapped baits, to RVS167: 0.00; Protein-protein interaction distance between Abp1 SH3-swapped baits, to SDC25: 34.37; Protein-protein interaction distance between Abp1 SH3-swapped baits, to SHO1: 6.815; Protein-protein interaction distance between Abp1 SH3-swapped baits, to SLA1-1: 30.09; Protein-protein interaction distance between Abp1 SH3-swapped baits, to SLA1-2: 19.9; Protein-protein interaction distance between Abp1 SH3-swapped baits, to SLA1-3: 7.698; Protein-protein interaction distance between Abp1 SH3-swapped baits, to YSC84: 8.283; PPIs gained by Abp1 - SH3-dependent PPIs gained by Abp1 [1]: 9; SH3-dependent PPIs - SH3-dependent PPIs gained by Abp1 [1]: 26; SH3-dependent PPIs gained by Abp1 [2]: 5
YAL005C	–	–	–	–	–	–	–	–	–	–	–	–	–	–	–	–	–	–	–	–	medrep (log2 median colony size normalized to plate background) [3]: 5.43; medsize (median colony size) [3]: 6098

Source: PMC7954794, “Protein context shapes the specificity of SH3 domain-mediated interactions in vivo” (Nature Communications, 2021)
